Results from US20050002879A1, “External skin compositions” (priority 2001, published 2005).

Tests used:
Assay type in all cases: cell-based
[1] = test system: Human keratinocytes; assay: Test Example 1: hyaluronic acid production test in human normal keratinocytes; conditions: N-acetylglucosamine 5 mmol/L, retinyl palmitate 0.0001%, retinoic acid 1.0 mmol/L; for production of hyaluronic acid increased, times as compared with the no-addition group: 24 hours; for Hyaluronic acid production promotion ratio (% ± S.D.): % of hyaluronic acid in medium without test substance, 24 hours after addition
Protocol: Hyaluronic Acid Production Test to Human Normal Keratinocytes)
(§1) Human keratinocytes (manufactured by Kurabo Industries, Ltd.) were seeded in a 24-well plate, cultured to confluence in a growth medium, and then 5 mmol/L of N-acetylglucosamine, 0.0001% of retinyl palmitate, 0.0001% of retinyl palmitate+5 mmol/L of N-acetylglucosamine, 1.0 mmol/L of retinoic acid, or 1.0 mmol/L of retinoic acid+5 mmol/L of N-acetylglucosamine were added, respectively. 24 hours after the addition, hyaluronic acid released into the medium was determined. The determination of hyaluronic acid was conducted using a commercially available hyaluronic acid determination kit (manufactured by Chugai Diagnostics Science).
The effects of test substances were defined as percentage (%) of the amount of hyaluronic acid in a cultured medium without a test substance.

[2] = test system: Human keratinocytes; assay: Test Example 2: hyaluronic acid production test in human keratinocytes (retinoids with or without NAG); conditions: RA 1 mmol/L, ROH 1 mmol/L, RPal 0.001%, RAce 0.001%, NAG 5 mmol/L; for amount of hyaluronic acid released into the medium: n=3, 24 hours
Protocol: as §1
Hyaluronic Acid Production Test to Human Keratinocytes
In the same manner as in Test Example 1, the test was conducted (n=3). As the test substance, 1 mmol/L of retinoic acid (hereinafter referred to as RA), 1 mmol/L of retinol (hereinafter referred to as ROH), 0.001% of retinyl palmitate (hereinafter referred to as RPal) and 0.001% of retinyl acetate (hereinafter referred to as RAce) were used, and the determination was conducted with respect to the case where 5 mmol/L of N-acetylglucosamine (hereinafter referred to as NAG) and each of the above test substances were simultaneously added. The results are shown below and in FIG. 1.

[3] = test system: Human keratinocytes; assay: Test Example 3: hyaluronic acid production promotion test in human keratinocytes (â-carotene with or without NAG); conditions: â-carotene 10 mmol/L; for amount of hyaluronic acid: n=3, 24 hours
Protocol: as §1
Hyaluronic Acid Production Promotion Test to Human Keratinocytes)
In the same manner as in Test Example 1, the test was conducted and the amount of hyaluronic acid was determined (n=3). As the test substance, 10 mmol/L of â-carotene (hereinafter referred to as âCAR), NAG, and NAG+âCAR were used. The results are shown below and in FIG. 2.

SMILES	production of hyaluronic acid increased, times as compared with the no-addition group [1] [times]	Hyaluronic acid production promotion ratio (% ± S.D.) [1] [%]	production of hyaluronic acid increased, times as compared with the no-addition group [2] [times]	amount of hyaluronic acid released into the medium [2] [ig/well]	amount of hyaluronic acid [3] [ig/well]	production of hyaluronic acid increased, times as compared with the no-addition group [3] [times]
CCCCCCCCCCCCCCCC(=O)OC/C=C(C)/C=C/C=C(C)/C=C/C1=C(C)CCCC1(C)C [retinyl palmitate]	1.23	123 ± 16.4	2.0	0.22	–	–
CC1=CCCC(C)(C)C1/C=C/C(C)=C/C=C/C(C)=C/C=C/C=C(C)/C=C/C=C(C)/C=C/C1=C(C)CCCC1(C)C (centres unmarked) [â-carotene]	–	–	–	–	0.16	1.1
CC(=O)N[C@H]1C(O)O[C@H](CO)[C@@H](O)[C@@H]1O (some centres unmarked) [N-acetylglucosamine]	1.55	155 ± 11.8	1.1	0.12	0.18	1.3
CC(=O)OC/C=C(C)/C=C/C=C(C)/C=C/C1=C(C)CCCC1(C)C [retinyl acetate]	–	–	1.6	0.18	–	–
CC1=C(/C=C/C(C)=C/C=C/C(C)=C/CO)C(C)(C)CCC1 [retinol]	–	–	1.4	0.15	–	–
CC1=C(/C=C/C(C)=C/C=C/C(C)=C/C(=O)O)C(C)(C)CCC1 [retinoic acid, reference compound]	2.5	250 ± 20.8	3.4	0.37	–	–
